Usually EC50 stands for the concentration giving half of the maximal effect. A higher EC50 goes with weaker potency.

Sequence of IRE1α kinase and endoribonuclease domains (O75460 19-977): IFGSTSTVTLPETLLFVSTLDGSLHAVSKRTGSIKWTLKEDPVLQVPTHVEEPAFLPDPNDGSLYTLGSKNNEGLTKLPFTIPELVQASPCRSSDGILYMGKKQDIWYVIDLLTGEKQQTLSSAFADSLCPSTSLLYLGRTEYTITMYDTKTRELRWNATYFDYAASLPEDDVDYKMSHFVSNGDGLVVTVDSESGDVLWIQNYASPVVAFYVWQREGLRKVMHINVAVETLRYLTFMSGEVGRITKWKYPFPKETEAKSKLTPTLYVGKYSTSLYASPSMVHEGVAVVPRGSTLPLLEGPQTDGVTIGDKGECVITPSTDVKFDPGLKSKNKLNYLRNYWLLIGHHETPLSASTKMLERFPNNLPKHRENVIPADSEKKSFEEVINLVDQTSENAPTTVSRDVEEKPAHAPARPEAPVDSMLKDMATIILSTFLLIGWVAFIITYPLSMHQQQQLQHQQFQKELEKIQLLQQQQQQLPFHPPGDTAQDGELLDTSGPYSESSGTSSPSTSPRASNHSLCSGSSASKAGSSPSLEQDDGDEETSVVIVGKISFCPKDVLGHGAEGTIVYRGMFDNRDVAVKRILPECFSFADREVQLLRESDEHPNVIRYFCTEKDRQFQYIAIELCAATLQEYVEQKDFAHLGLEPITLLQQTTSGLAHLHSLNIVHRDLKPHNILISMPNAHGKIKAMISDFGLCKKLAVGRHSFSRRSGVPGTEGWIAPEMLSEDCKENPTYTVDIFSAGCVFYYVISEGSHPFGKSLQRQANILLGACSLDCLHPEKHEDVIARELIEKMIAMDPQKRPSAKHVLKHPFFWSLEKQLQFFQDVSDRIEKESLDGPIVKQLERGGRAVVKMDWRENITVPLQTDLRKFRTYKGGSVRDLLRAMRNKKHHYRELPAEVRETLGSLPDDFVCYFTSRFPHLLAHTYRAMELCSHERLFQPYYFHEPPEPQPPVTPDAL

One assay concerns the target IRE1α kinase and endoribonuclease domains (Homo sapiens, UniProt O75460).
Test: not given
The conditions noted are these: cited from earlier work.
In the case of `CC(C)n1nc(-c2ccc(NC(=O)Nc3cccc(C(F)(F)F)c3)cc2)c2c(N)ncnc21` [SRC inhibitor, 1-(4-(4-Amino-1-isopropyl-1H-pyrazolo[3,4-d]pyrimidin-3-yl)phenyl)-3-(3-(trifluoromethyl)phenyl)urea], the “inhibition of IRE1α kinase and endoribonuclease domains” value was “inhibits”.

The target of a further assay is T1, IRE1α (Homo sapiens, UniProt O75460).
T1 construct: purchased SignalChem
T1 sequence (O75460 19-977): as above
The assay is described as follows: In vitro FRET assay (XBP1 RNA probe cleavage by IRE1α). The settings on record: biochemical FRET assay, 2 nM IRE1α. The method, then:
In vitro FRET assay was performed to evaluate the ability of select compounds to inhibit IRE1, the results of which are summarized in the following table.
To perform the in vitro FRET assay, 1× complete assay buffer (CAB; […], 50 mM sodium citrate pH 7.15, 1 mM magnesium acetate, 0.02% Tween 20) was used to dilute SignalChem IRE1α in protein to a final concentration of 2 nM. Selected compounds were serially diluted with DMSO in a non-binding black 384-well plate for a total of 15 μl in each well. 2 μl of the serially diluted compound or DMSO control were then added to new wells containing 98 μl of 1×CAB, for a total volume of 100 μl, 10 μl of which were then transferred to wells of a new plate. 5 μl of the diluted IRE1α was then added to each well. 5 μl of a […] XBP1 RNA probe was then added to each well. Fluorescence was then read over 30 minutes in kinetic mode (485/515 nm). Two RNA probes were used, XBP1 wildtype (CAUGUCCGCAGCACAUG; SEQ ID NO: 1) which is able to be spliced by active IRE1α or XBP1 mutant (CAUGUCCCCAGCACAUG; SEQ ID NO: 2) which is unable to be spliced. Each probe contained a 5′ 6-FAM modification and a 3′ IOWA Black FQ modification. […]
`Cn1nc(NC(=O)Nc2ccc(CN3CCN(CCO)CC3)c(C(F)(F)F)c2)cc1-c1ccc2ccncc2c1` [Compound 36, 1-(4-((4-(2-hydroxyethyl)piperazin-1-yl)methyl)-3-(trifluoromethyl)phenyl)-3-(5-(isoquinolin-7-yl)-1-methyl-1H-pyrazol-3-yl)urea] gave an EC50 of at most 5 µM. As for `CN1CCN(Cc2ccc(C(=O)Nc3cc(-c4ccc5cc(N)ncc5c4)n(C)n3)c3ccccc23)CC1` [Compound 61, N-(5-(3-aminoisoquinolin-7-yl)-1-methyl-1H-pyrazol-3-yl)-4-((4-methylpiperazin-1-yl)methyl)-1-naphthamide], the EC50 was above 100 µM.

In turn, `CN1CCN(Cc2ccc(Nc3c(Nc4cc(-c5ccc6ccncc6c5)n(C)n4)c(=O)c3=O)cc2)CC1` [Compound 74, 3-((5-(isoquinolin-7-yl)-1-methyl-1H-pyrazol-3-yl)amino)-4-((4-((4-methylpiperazin-1-yl)methyl)phenyl)amino)cyclo-but-3-ene-1,2-dione] displayed an EC50 of at most 5 µM. On the same count and under the same terms, then `O=C(Nc1ccc(CN2CCN(Cc3ccccc3)CC2)c(C(F)(F)F)c1)Nc1ccc2oc(-c3cccnc3)nc2c1` [Compound 14, 1-(4-((4-benzylpiperazin-1-yl)methyl)-3-(trifluoromethyl)phenyl)-3-(2-(pyridin-3-yl)benzo[d]oxazol-5-yl)urea], with 50 to 100 µM; and `O=C(C#Cc1ccccc1)Nc1ccc2oc(-c3cccnc3)nc2c1` [Compound 58, 3-phenyl-N-(2-(pyridin-3-yl)benzo[d]oxazol-5-yl)propiolamide], with above 100 µM; and `CN1CCN(Cc2ccc(NC(=O)Nc3cc(-c4cccnc4)[nH]n3)cc2C(F)(F)F)CC1` [Compound 7, 1-(4-((4-methylpiperazin-1-yl)methyl)-3-(trifluoromethyl)phenyl)-3-(5-(pyridin-3-yl)-1H-pyrazol-3-yl)urea], with 5 to 50 µM. For `CN1CCN(Cc2ccc(NC(=O)Nc3nn(C)c4cc(-c5cnc(N)cn5)ccc34)cc2C(F)(F)F)CC1` [Compound 10, 1-(6-(5-aminopyrazin-2-yl)-1-methyl-1H-indazol-3-yl)-3-(4-((4-methylpiperazin-1-yl)methyl)-3-(trifluoromethyl)phenyl)urea], the EC50 lay in the range of 5 to 50 µM. On to `O=C(Nc1ccccc1)Nc1ccc2oc(-c3cccnc3)nc2c1` [Compound 56, 1-phenyl-3-(2-(pyridin-3-yl)benzo[d]oxazol-5-yl)urea], for which the half-maximal effective concentration (EC50) is above 100 µM. Turning to `CC(C)N1CCN(Cc2ccc(NC(=O)Nc3cc(-c4ccc5ccncc5c4)n(C)n3)cc2C(F)(F)F)CC1` [Compound 37, 1-(4-((4-isopropylpiperazin-1-yl)methyl)-3-(trifluoromethyl)phenyl)-3-(5-(isoquinolin-7-yl)-1-methyl-1H pyrazol-3-yl)urea], the EC50 is at most 5 µM.

In turn, `Cn1nc(NC(=O)c2cccc(-n3cccn3)c2)cc1-c1ccc2ccncc2c1` [Compound 20, N-(5-(isoquinolin-7-yl)-1-methyl-1H-pyrazol-3-yl)-3-(1H-pyrazol-1-yl)benzamide] displayed an EC50 above 100 µM.

Compound `CN1CCN(Cc2ccc(NC(=O)Nc3cc(-c4ccc(-c5ccc(N)nc5)cc4)[nH]n3)cc2C(F)(F)F)CC1` [Compound 55, 1-(5-(4-(6-aminopyridin-3-yl)phenyl)-1H-pyrazol-3-yl)-3-(4-((4-methylpiperazin-1-yl)methyl)-3-(trifluoromethyl)phenyl)urea] registered an EC50 of 5 to 50 µM. For `Cn1nc(NS(=O)(=O)c2cccc(C(F)(F)F)c2)cc1-c1ccc2ccncc2c1` [Compound 72, N-(5-(isoquinolin-7-yl)-1-methyl-1H-pyrazol-3-yl)-3-(trifluoromethyl)benzene-sulfonamide], the EC50 is 50 to 100 µM. Regarding `CN1CCN(Cc2ccc(NC(=O)Cc3cc(-c4ccc5nc(N)ncc5c4)n(C)n3)cc2C(F)(F)F)CC1` [Compound 33, 2-(5-(2-aminoquinazolin-6-yl)-1-methyl-1H-pyrazol-3-yl)-N-(4-((4-methylpiperazin-1-yl)methyl)-3-(trifluoromethyl)phenyl)acetamide], the EC50 lay in the range of 5 to 50 µM.

For `CN1CCN(Cc2ccc(NC(=O)Nc3cc(-c4cccc5nccnc45)n(C)n3)cc2C(F)(F)F)CC1` [Compound 6], the EC50 is above 100 µM. The compound `CN1CCN(Cc2ccc(NC(=O)Nc3cc(-c4ccc5cnoc5c4)n(C)n3)cc2C(F)(F)F)CC1` [Compound 2, 1-(5-(benzo[d]isoxazol-6-yl)-1-methyl-1H-pyrazol-3-yl)-3-(4-((4-methylpiperazin-1-yl)methyl)-3-(trifluoromethyl)phenyl)urea] yielded an EC50 of 5 to 50 µM. Take `CN1CCN(Cc2ccc(Nc3c(Nc4cc(-c5ccc6ccncc6c5)n(C)n4)c(=O)c3=O)cc2C(F)(F)F)CC1` [Compound 73, 3-((5-(isoquinolin-7-yl)-1-methyl-1H-pyrazol-3-yl)amino)-4-((4-((4-methylpiperazin-1-yl)methyl)-3-(trifluoromethyl)phenyl)amino) cyclobut-3-ene-1,2-dione]: the EC50 was at most 5 µM. `Cn1nc(NC(=O)Nc2ccc(CN3CCOCC3)c(C(F)(F)F)c2)cc1-c1ccc2ccncc2c1` [Compound 39, 1-(5-(isoquinolin-7-yl)-1-methyl-1H-pyrazol-3-yl)-3-(4-(morpholinomethyl)-3-(trifluoromethyl)phenyl)urea] registered an EC50 above 100 µM.

`CN1CCN(Cc2ccc(NC(=O)Nc3n[nH]c4cc(-c5cnc(N)nc5)ccc34)cc2C(F)(F)F)CC1` [Compound 11, 1-(6-(2-aminopyrimidin-5-yl)-1H indazol-3-yl)-3-(4-((4-methylpiperazin-1-yl)methyl)-3-(trifluoromethyl)phenyl)urea] yielded an EC50 of 5 to 50 µM. `CN1CCN(Cc2ccc(NC(=O)Nc3cc(-c4ccc(-c5cccc6nccnc56)cc4)n(C)n3)cc2C(F)(F)F)CC1` [Compound 53] displayed an EC50 above 100 µM. Same read-out and setting: then `CN1CCN(Cc2ccc(NC(=O)Nc3cc(-c4ccn5ccnc5c4)n(C)n3)cc2C(F)(F)F)CC1` [Compound 4, 1-(5-(imidazo[1,2-a]pyridin-7-yl)-1-methyl-1H-pyrazol-3-yl)-3-(4-((4-methylpiperazin-1-yl)methyl)-3-(trifluoromethyl)phenyl)urea], with above 100 µM; and `CN1CCN(CCc2cccc(NC(=O)Nc3cc(-c4ccc5ccncc5c4)n(C)n3)c2)CC1` [Compound 19, 1-(5-(isoquinolin-7-yl)-1-methyl-1H-pyrazol-3-yl)-3-(3-(2-(4-methylpiperazin-1-yl)ethyl)phenyl)urea], with above 100 µM; and `CN1CCN(Cc2ccc(NC(=O)Nc3cc(-c4ccc5ccncc5c4)n(C)n3)cc2Br)CC1` [Compound 44, 1-(3-bromo-4-((4-methylpiperazin-1-yl)methyl)phenyl)-3-(5-(isoquinolin-7-yl)-1-methyl-1H-pyrazol-3-yl)urea], with 5 to 50 µM. On the same count and under the same terms, then `CC1CCCCN1Cc1ccc(NC(=O)Nc2cc(-c3ccc4ccncc4c3)n(C)n2)cc1C(F)(F)F` (stereo not drawn) [Compound 43, 1-(5-(isoquinolin-7-yl)-1-methyl-1H-pyrazol-3-yl)-3-(4-((2-methylpiperidin-1-yl)methyl)-3-(trifluoromethyl)phenyl)urea], with above 100 µM; and `Cn1nc(NC(=O)Nc2ccccc2)cc1-c1ccc2ccncc2c1` [Compound 64, 1-(5-(isoquinolin-7-yl)-1-methyl-1H-pyrazol-3-yl)-3-phenylurea], with above 100 µM. Regarding `CN1CCN(Cc2ccc(NC(=O)Nc3cc(-c4ccc(-c5cccn6ccnc56)cc4)n(C)n3)cc2C(F)(F)F)CC1` [Compound 54, 1-(5-(4-(imidazo[1,2-a]pyridin-8-yl)phenyl)-1-methyl-1H-pyrazol-3-yl)-3-(4-((4-methylpiperazin-1-yl)methyl)-3-(trifluoromethyl)phenyl)urea], the EC50 is at most 5 µM.

`Cc1nc(NC(=O)Nc2ccc(CN3CCN(C)CC3)c(C(F)(F)F)c2)n(C)c1-c1ccc2cc(N)ncc2c1` [Compound 50, 1-(5-(3-aminoisoquinolin-7-yl)-1,4-dimethyl-1H-imidazol-2-yl)-3-(4-((4-methylpiperazin-1-yl)methyl)-3-(trifluoromethyl)phenyl)urea]: the EC50 lay within 5 to 50 µM. Turning to `CN1CCN(Cc2ccc(NC(=O)Nc3cc(-c4ccc5ccncc5c4)n(C)n3)cc2)CC1` [Compound 47, 1-(5-(isoquinolin-7-yl)-1-methyl-1H-pyrazol-3-yl)-3-(4-((4-methylpiperazin-1-yl)methyl)phenyl)urea], the EC50 was above 100 µM.

For `CN1CCN(Cc2ccc(NC(=O)Nc3cc(-c4ccc5ncncc5c4)n(C)n3)cc2C(F)(F)F)CC1` [Compound 22, 1-(1-methyl-5-(quinazolin-6-yl)-1H-pyrazo1-3-yl)-3-(4-((4-methylpiperazin-1-yl)methyl)-3-(trifluoromethyl)phenyl)urea], the EC50 is at most 5 µM.

The subject of the next assay is myeloid dendritic cells. The assay is described as follows: Lipid accumulation in dendritic cells exposed to ovarian cancer ascites supernatants (BODIPY 493/503 staining, flow cytometry). The assay is classed as cell-based, mouse.
Settings: not given
(In general: A flow cytometer gives signals particle by particle.)
In the case of vitamin E, the “pathological intracellular lipid accumulation” value was “suppressed”.
